In assay [1] the test system is THP-1. In words: Antiinflammatory activity against LPS-stimulated human THP-1 cells assessed inhibition of IL-6 release at 40 uM measured by ELISA. Type of assay: functional, cell-based.
In a further assay the test system is MCF7. As to the kind of experiment: Antiproliferative activity against human MCF7 cells assessed as growth inhibition at 0.2 uM measured after 72 hrs by MTT assay. The class given is functional. Conditions: read-out: GI. (In general: Tetrazolium dyes change colour on reduction, which living cells bring about.)
In assay [2] the test system is HCT-116. In words: Antiproliferative activity against human HCT-116 cells assessed as growth inhibition at 0.2 uM measured after 72 hrs by MTT assay. The class given is functional. To be noted: read-out: GI.
In assay [3] the target is T1, Proteasome subunit beta type-9 (Homo sapiens, UniProt P28065).
T1 sequence (P28065 whole entry): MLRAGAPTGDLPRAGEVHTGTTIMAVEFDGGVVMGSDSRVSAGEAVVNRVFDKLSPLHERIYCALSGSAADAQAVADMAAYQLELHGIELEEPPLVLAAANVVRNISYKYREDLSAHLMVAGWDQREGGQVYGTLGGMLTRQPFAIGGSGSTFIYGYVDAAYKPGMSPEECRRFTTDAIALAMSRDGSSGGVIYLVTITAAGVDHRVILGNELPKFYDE
In words: Inhibition of 20S proteasome subunit beta-1i (unknown origin) using Ac-PAL-AMC as substrate and measured after 30 mins.

For a further assay, the system named is Pfeiffer. As to the kind of experiment: Antiproliferative activity against human Pfeiffer cells assessed as growth inhibition at 0.2 uM measured after 72 hrs by MTT assay. The class given is functional. Conditions: read-out: GI.
The test system of the next assay is HT-29. As to the kind of experiment: Antiproliferative activity against human HT-29 cells assessed as growth inhibition at 0.2 uM measured after 72 hrs by MTT assay. To be noted: read-out: GI. The class given is functional.
The target in assay [4] is T2, Proteasome subunit beta type-10 (Homo sapiens, UniProt P40306).
T2 sequence (P40306 whole entry): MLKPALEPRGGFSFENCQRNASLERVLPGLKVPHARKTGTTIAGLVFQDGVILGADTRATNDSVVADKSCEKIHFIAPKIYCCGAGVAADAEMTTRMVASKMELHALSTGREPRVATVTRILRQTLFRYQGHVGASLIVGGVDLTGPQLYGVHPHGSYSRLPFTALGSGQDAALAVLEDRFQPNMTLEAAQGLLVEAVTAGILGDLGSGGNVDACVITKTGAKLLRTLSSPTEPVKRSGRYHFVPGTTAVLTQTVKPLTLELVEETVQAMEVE
In words: Inhibition of 20S proteasome subunit beta-2i (unknown origin) using Ac-KQL-AMC as substrate and measured after 30 mins.

Assay [5] relates to THP-1. As to the kind of experiment: Antiinflammatory activity against LPS-stimulated human THP-1 cells assessed inhibition of TNF-alpha release at 40 uM measured by ELISA. The class given is functional, cell-based. (In general: An ELISA detects its analyte on a solid surface through an enzyme-linked reagent.)
Assay [6] is described as follows: Selectivity ratio of IC50 for inhibition of 20S proteasome beta 5c subunit (unknown origin) to IC50 for inhibition of 20S proteasome subunit beta-5i.
Another assay has as its system DOHH-2. As to the kind of experiment: Antiproliferative activity against human DOHH-2 cells assessed as growth inhibition at 0.2 uM measured after 72 hrs by MTT assay. The class given is functional. Conditions: read-out: GI.
The target in assay [7] is T3, Proteasome subunit beta type-8 (Homo sapiens, UniProt P28062).
T3 sequence (P28062 whole entry): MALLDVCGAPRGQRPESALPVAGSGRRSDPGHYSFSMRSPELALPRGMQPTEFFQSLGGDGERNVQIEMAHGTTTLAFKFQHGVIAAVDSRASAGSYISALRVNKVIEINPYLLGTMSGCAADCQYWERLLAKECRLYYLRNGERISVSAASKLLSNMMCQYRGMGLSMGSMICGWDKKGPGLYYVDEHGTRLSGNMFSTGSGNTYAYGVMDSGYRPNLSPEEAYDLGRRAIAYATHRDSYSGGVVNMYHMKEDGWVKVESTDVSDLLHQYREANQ
In words: Inhibition of 20S proteasome subunit beta-5i (unknown origin) using Ac-ANW-AMC as substrate and measured after 30 mins.

Assay [8] deals with HCT-116. As to the kind of experiment: Antiproliferative activity against human HCT-116 cells assessed as growth inhibition measured after 72 hrs by CCK-8 assay. Type of assay: functional, cell-based. Conditions: HCT-116, 72 h.

A word on the pIC50: it is the negative decadic logarithm of the IC50, by convention in mol/L.

pIC50: −log10 of the molar value. Activity calls are given as the source filed them. No cut-off for these calls is given here. A value given as a limit tells only on which side of the number the result lay.

Consider `CC(C)(C)NC(=O)CC[C@H](NC(=O)CCNC(=O)CCl)C(=O)N[C@@H](Cc1ccc2ccccc2c1)C(=O)NCc1cccc2ccccc12`, for which the outcome in the assay on THP-1 [1] and in the assay on THP-1 [5] was Active. The inhibition of growth at 0.2 µM in the assay on MCF7 was 25%; in the assay on HCT-116 [2], 21%; in the assay with Pfeiffer, below 20%; with HT-29, below 20%; in the assay on DOHH-2, below 20%. Further, the pIC50 in assay [3] and in assay [4] was below 4.40 in each case. Also, the Ratio IC50 in assay [6] amounted to 535.

Regarding `Cc1ccc(CNC(=O)[C@H](Cc2ccccc2)NC(=O)[C@H](CCC(=O)NC(C)(C)C)NC(=O)CCNC(=O)/C(C#N)=C/c2ccco2)cc1`, the inhibition of growth at 0.2 µM was below 20% in the assay on MCF7; 76% in the assay on HCT-116 [2]; below 20% in the assay on Pfeiffer; 48% with HT-29; 23% in the assay on DOHH-2. In addition, the pIC50 in assay [3] was below 4.40; in assay [4] it was below 4.40; in [7] it was 8.53; in the assay with HCT-116 [8] it was 6.80.

Consider `CC(C)(C)NC(=O)CC[C@H](NC(=O)CCNC(=O)CCl)C(=O)N[C@@H](Cc1ccccc1)C(=O)NCc1cccc2ccccc12`, for which the outcome in the assay with THP-1 [1] and with THP-1 [5] was Active. Also, the inhibition of growth at 0.2 µM in the assay on MCF7 was below 20%; in the assay with HCT-116 [2], 21%; in the assay on Pfeiffer, below 20%; with HT-29, below 20%; in the assay with DOHH-2, below 20%. The pIC50 was below 4.40 in assay [3], below 4.40 in assay [4] and 8.42 in assay [7]. Further, the Ratio IC50 in assay [6] came out at 113.

The record behind these values is ChEMBL document CHEMBL5154800, “Identification of N, C-capped di- and tripeptides as selective immunoproteasome inhibitors” (Eur J Med Chem, 2022).
